The text below walks through data of patent US20110293525A1, “TUMOR STEM CELLS” (BOARD OF TRUSTEES OF THE UNIVERSITY OF ILLINOIS, priority 2010, published 2011).

For data set [1], the system named is SCC040 parent and HNO cells. As to the method: (§1) Exposure to Radicals: Cells were exposed to varying concentrations of hydrogen peroxide to determine if the adapted cells were resistant to high free radical environments generated by oxygen-based free radicals. Parent and adapted cells were seeded (100 μL) into 96-well microtiter plates in the appropriate media (parent cells in media without NO donor, HNO cells in media supplemented with 600 μM DETA-NONOate) and incubated overnight, reaching approximately 70% confluency by the following day. Cells were treated with varying concentrations (0-1.78 mM) of hydrogen peroxide (30% w/w solution, Sigma H1009, Sigma-Aldrich Corp., St. Louis, Mo., USA) and incubated at 37° C. for an additional 24 h. MTT cell viability/proliferation assays were then performed, as described above. A minimum of four replicate wells were measured for each cell line at each concentration, and assays were repeated in triplicate. Data were normalized against the mean of the untreated control cells, and values lying outside of two standard deviations were removed. Data were plotted as the mean normalized absorbance±standard error.

In data set [2] the test system is SCC114 parent and HNO cells. On the procedure:
as §1

Data set [3] relates to A549 parent and A549-HNO cells. As to the method: as §1
In data set [4] the test system is T-47D parent and HNO cells. On the procedure:
as §1

Data set [5] relates to BT-20 parent and HNO cells. On the procedure:
as §1

Data set [6] concerns Hs578t parent and HNO cells. On the procedure:
as §1

For data set [7], the system named is SCC116 parent and HNO cells. As to the method: as §1
Data set [8] deals with SCC016 parent and HNO cells. As to the method:
as §1

The test system of data set [9] is SCC056 parent and HNO cells. On the procedure: as §1
Data set [10] has as its system MCF-7 parent and HNO cells. On the procedure:
as §1

The test system of data set [11] is four breast adenocarcinoma cell line pairs, parent and HNO cells. As to conditions: 24 h exposure, T-47D, Hs578T, BT-20, MCF-7 pairs. As to the method: as §1
Data set [12] has as its system HNSCC parent and HNO cells. As to conditions: 24 h exposure, HNSCC cell lines. As to the method:
as §1

The subject of another data set is tumor cell lines. As to the kind of experiment: MTT viability after 72 h exposure to 0-600 μM DETA-NONOate. It counts as cell-based. As to conditions: doses 0-600 μM. On the procedure: (§2) Viability of Long Term NO Adapted Cultures: Cells from each of the cell lines were seeded (100 μL) into 96-wellmicrotiter plates and grown for 24 h, to ˜70% confluency. The media was then removed, and the cells were treated with 100-μL media containing varying concentrations (0-600 μM) of DETA-NONOate. Following an additional 72-h incubation period, cell proliferation/viability was assessed using the 3-(4,5-dimethylthiazol-2-yl)-2,5-diphenyltetrazolium bromide (MTT) assay. Media was removed from each well, and 100 μL of 2 mg/mL of MTT (Sigma-Aldrich Corp., St. Louis, Mo. USA) in phosphate buffer saline (PBS) was added. Plates were then placed in an incubator (37° C.) for 5 h, during which time purple formazan crystals formed upon the reaction of the MTT with mitochondrial dehydrogenases of viable cells. Following the incubation period, the MTT solution was removed, and 100 μL of dimethyl sulfoxide (DMSO) was added. The absorbance of the resulting purple solution in each well was read (540 nm) using a SpectraMax® Plus 384 spectrophotometer (Molecular Devices, Inc., Sunnyvale, Calif., USA). Each experiment was independently conducted a minimum of three times, and a minimum of four replicate wells were tested for each cell line at each concentration. Data were normalized to the mean optical density of the untreated control cells. […]

The conditions of data set [13]: buffer, pH 7.4; cited from earlier work.
In data set [14] the test system is five HNSCC cell lines, parent cells. As to the kind of experiment: MTT viability/proliferation in media containing 600 μM DETA-NONOate. It is filed as cell-based, human. As to the method: as §2
Another data set deals with parent A549 cells. Described as above. It counts as cell-based, human. As to conditions: 600 μM donor, 72 hour period. On the procedure:
as §2

The subject of the next data set is LP07 parent cells. As to the kind of experiment: MTT viability/proliferation in media containing 300 μM DETA-NONOate. It is filed as cell-based, mouse. As to conditions: LP07 cell line. As to the method: as §2

As for `OO` [H2O2, hydrogen peroxide], the “H2O2 Resistance: highest concentration of H2O2 that the HNO cell lines grow in which the parent cell lines do not survive” value in data set [1] stood at 0.028 mM; in data set [2], 0.55 mM; in data set [3] (A549), 0.055 mM; in data set [4], 0.028 mM; in [5], 0.0069 mM; in data set [6], 0.0069 mM. For the same compound, the “H2O2 Resistance: highest concentration of H2O2 that the HNO cell lines grow in which the parent cell lines do not survive” value is listed as 0.028 mM in data set [7], 0.028 mM in data set [8], 0.028 mM in [9] and 0.014 mM in [10]. Moreover, the “concentrations at which both parent and HNO cells were killed” value in data set [3] (24 h exposure, A549 and A549-HNO) was no less than 0.055 mM; in [11], no less than 110 µM. In addition, the “concentrations that killed both parent and HNO cells” value in data set [12] is “above 55 μM”.

“(Z)-1-[2-(2-aminoethyl)-N-(2-ammonioethyl) amino]diazen-1-ium-1,2-diolate [DETA-NONOate]”: in the data set with tumor cell lines, the “minimum concentration studied that was completely lethal to the cells” value was 600 µM. In addition, the half-life entry in data set [13] is “approximately 24 h”. Further, the “survival of parent cells in media containing the NO donor” value in data set [14] was “completely killed”; in the data set on LP07 parent cells, “Analogous results”. Further, the “survival of parent cells placed directly into HNO environment” value in the data set on parent A549 cells is listed as “not able to survive”.
